Measured values from patent US11773379B2, “Enzymes and reagents for measurement of short chain fatty acids” (SYSMEX CORPORATION, priority 2018, dated 2023).

Legend:
[1] = tested on: BKIII (recombinant butyrate kinase derived from Thermosediminibacter oceani); experiment: Substrate specificity of butyrate kinase BKIII; format: biochemical; settings: 100 mM sodium salt of fatty acid in second reagent, pH 7.5
Experimental: (§1) Various fatty acids shown in Table 1 were used as a substrate. The measurement was performed using a 7180 type Hitachi automatic analyzer (Hitachi High-Tech Corporation). […] PHARMA CORPORATION) • 5 U/mL ADP-HK II (ADP dependent hexokinase: […] PHARMA CORPORATION) […] In the composition of the second reagent, “sodium salts of various fatty acids” means any one kind of sodium caprylate, sodium caproate, sodium valerate, sodium isovalerate, sodium butyrate, sodium isobutyrate, sodium propionate, sodium acetate, sodium lactate, and sodium succinate. Isobutyric acid, valeric acid, isovaleric acid, caproic acid, and octanoic acid, which are commercially available fatty acids and are not sold as sodium salts, were adjusted to pH 7.5 with sodium hydroxide. […] [Measurement Parameters of Automatic Analyzer] • Analysis method: […]

[2] = tested on: propionic acid kinase (PK); experiment: Comparative Example 1: measurement using propionic acid kinase, reaction recovery rate; format: biochemical; settings: 5 mM substrate
Experimental: (§2) It was examined whether butyric acid could be measured by using acetate kinase (AK) or propionic acid kinase (PK) instead of butyrate kinase. For comparison, measurement using BKIII was also performed.
(§3) Neutralized 100 mM acetic acid, butyric acid, and isobutyric acid were mixed with physiological saline to prepare a 5 mM acetic acid aqueous solution, a 5 mM butyric acid aqueous solution, and a 5 mM isobutyric acid aqueous solution, respectively.
(§4) The composition of the first reagent was the same as that of the first reagent used for examining the substrate specificity of Reference Example 7.
(§5) AK (Sigma-Aldrich Co. LLC., derived from E. coli), PK (MyBioSource, recombinant protein) and BKIII were added to 100 mM Tris-HCl (pH 7.5) (Sigma-Aldrich Co. LLC.), respectively, to prepare an enzyme solution containing each enzyme at a concentration of 1.25 to 40 U/mL.
(§6) The measurement was performed using a 7180 type Hitachi automatic analyzer (Hitachi High-Tech Corporation). The measurement parameters of the automatic analyzer were the same as in Example 2.
(§7) In the same manner as in Example 2, butyric acid and isobutyric acid in the sample were measured by the automatic analyzer. The reaction recovery rate (%) was calculated by dividing the measured value by the theoretical absorbance value. The theoretical absorbance is the absorbance when all the substrate (butyric acid or isobutyric acid) in the sample is converted to NADPH, and is calculated by the following formula. […] (Theoretical absorbance)= (substrate concentration in sample)×[(sample volume)/(sample volume+ first reagent amount+second reagent amount)]×(NADPH millimole molecular extinction coefficient at 340 nm)= 5×[3.5/(3.5+140+35)]×6.3= 0.617

acetate kinase (AK) = target: T1, acetate kinase (AK) (Escherichia coli, UniProt P0A6A3); experiment: Comparative Example 1: measurement using acetate kinase, reaction recovery rate; format: biochemical, E. coli; settings: 5 mM substrate
T1 construct: purchased Sigma-Aldrich Co. LLC
T1 sequence (P0A6A3 whole entry): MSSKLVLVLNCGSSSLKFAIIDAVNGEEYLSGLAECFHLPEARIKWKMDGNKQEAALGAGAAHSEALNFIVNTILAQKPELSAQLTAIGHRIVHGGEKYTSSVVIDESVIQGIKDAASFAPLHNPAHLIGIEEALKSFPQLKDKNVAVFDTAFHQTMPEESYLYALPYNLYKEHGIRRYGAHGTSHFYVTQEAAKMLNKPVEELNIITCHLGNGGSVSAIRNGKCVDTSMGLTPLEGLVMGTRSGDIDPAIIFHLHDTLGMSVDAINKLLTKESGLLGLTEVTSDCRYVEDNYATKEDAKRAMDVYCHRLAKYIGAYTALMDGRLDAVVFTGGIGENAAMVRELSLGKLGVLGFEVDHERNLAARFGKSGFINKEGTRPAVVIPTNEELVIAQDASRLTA
Experimental: as §2, §3, §4, §5, §6, §7

BKIII = experiment: Comparative Example 1: measurement using BKIII, reaction recovery rate; format: biochemical, Thermosediminibacter oceani; settings: 5 mM substrate
Experimental: as §2, §3, §4, §5, §6, §7

[3] = tested on: BKII (recombinant butyrate kinase derived from Acetoanaerobium sticklandii); experiment: Substrate specificity of butyrate kinase BKII; format: biochemical; settings: 100 mM sodium salt of fatty acid in second reagent, pH 7.5
Experimental: as §1

[4] = tested on: butyrate-acetoacetate-CoA transferase (EC 2.8.3.9); experiment: Comparative Example 3: measurement using butyrate-acetoacetate-CoA transferase, reaction recovery rate; format: biochemical, E. coli; settings: 60 μg/mL butyrate-acetoacetate-CoA transferase in second reagent; 5 mM substrate
Experimental: It was examined whether acetic acid and butyric acid could be measured by the reaction of formula (12), which is the reverse reaction of the formula (11), using butyrate-[…] transferase instead of butyrate kinase. […] The measurement was performed using a 7180 type Hitachi automatic analyzer (Hitachi High-Tech Corporation). […] LLC.) • 0.35 mM Acetoacetyl-CoA (Sigma-Aldrich Co. LLC.) • 2 mM MgCl2 (FUJIFILM Wako Pure Chemical Corporation) • 0.25 mM β-NADH (Oriental Yeast Co., Ltd.) • 5 U/mL 3-hydroxybutyrate dehydrogenase (FUJIFILM Wako Pure Chemical Corporation) […] LLC.) The measurement was performed using a 7180 type Hitachi automatic analyzer (Hitachi High-Tech Corporation). The measurement parameters of the automatic analyzer were the same as in Example 2.

[5] = tested on: acetate-CoA transferase (EC 2.8.3.8); experiment: Comparative Example 2: measurement using acetate-CoA transferase, reaction recovery rate; format: biochemical, E. coli; settings: 30 μg/mL acetate-CoA transferase in second reagent; 5 mM substrate
From the text: Acetate-CoA transferase (EC 2.8.3.8) has been reported to catalyze the reaction represented by the following formula (9) (EC 2.8.3.8 in the Enzyme nomenclature database on the ExPASy-SIB Bioinformatics Resource Portal).). It was examined whether butyric acid could be measured by the reaction of formula (10), which is the reverse reaction of formula (9), using acetate-CoA transferase instead of butyrate kinase The acetic acid produced by the formula (10) by acetate-CoA transferase was confirmed by the reaction with AK of Comparative Example 1. The measurement was performed using a 7180 type Hitachi automatic analyzer (Hitachi High-Tech Corporation). [Chemical formula 7] Acyl-CoA+acetic acid ? fatty acid+acetyl-CoA (9) Butyric acid+acetyl-CoA→butyrate-CoA+acetic acid (10)
The 5 mM butyric acid and 5 mM isobutyric acid aqueous solution used in Comparative Example 1 were used. […]
In the same manner as in Example 2, butyric acid and isobutyric acid in the sample were measured by the automatic analyzer. The reaction recovery rate (%) was calculated by dividing the measured value by the theoretical absorbance value of Comparative Example 1.

[6] = PK activity value in reaction mixed solution 0.3 U/mL
[7] = PK activity value in reaction mixed solution 0.5 U/mL
[8] = PK activity value in reaction mixed solution 1.0 U/mL
[9] = PK activity value in reaction mixed solution 2.0 U/mL
[10] = PK activity value in reaction mixed solution 4.0 U/mL
[11] = PK activity value in reaction mixed solution 8.0 U/mL
[12] = AK activity value in reaction mixed solution 0.3 U/mL
[13] = AK activity value in reaction mixed solution 0.5 U/mL
[14] = AK activity value in reaction mixed solution 1.0 U/mL
[15] = AK activity value in reaction mixed solution 2.0 U/mL
[16] = AK activity value in reaction mixed solution 4.0 U/mL
[17] = AK activity value in reaction mixed solution 8.0 U/mL
[18] = BKIII activity value in reaction mixed solution 0.3 U/mL
[19] = BKIII activity value in reaction mixed solution 0.5 U/mL
[20] = BKIII activity value in reaction mixed solution 1.0 U/mL
[21] = BKIII activity value in reaction mixed solution 2.0 U/mL
[22] = BKIII activity value in reaction mixed solution 4.0 U/mL
[23] = BKIII activity value in reaction mixed solution 8.0 U/mL

Compound	substrate specificity, relative value when the activity value with respect to butyric acid is 100 [1]	reaction recovery rate [2, 6]	reaction recovery rate [2, 7]	reaction recovery rate [2, 8]	reaction recovery rate [2, 9]	reaction recovery rate [2, 10]	reaction recovery rate [2, 11]	reaction recovery rate (acetate kinase (AK); [12])	reaction recovery rate (acetate kinase (AK); [13])	reaction recovery rate (acetate kinase (AK); [14])	reaction recovery rate (acetate kinase (AK); [15])	reaction recovery rate (acetate kinase (AK); [16])	reaction recovery rate (acetate kinase (AK); [17])	reaction recovery rate (BKIII; [18])	reaction recovery rate (BKIII; [19])	reaction recovery rate (BKIII; [20])	reaction recovery rate (BKIII; [21])	reaction recovery rate (BKIII; [22])	reaction recovery rate (BKIII; [23])	substrate specificity, relative value when the activity value with respect to butyric acid is 100 [3]	also measured
CC(=O)O [Acetic acid]	1%	0%	2%	3%	9%	21%	39%	16%	28%	44%	62%	78%	88%	0%	0%	0%	0%	1%	2%	1%	Reaction recovery rate (%) [4]: 1%
CCCC(=O)O [Butyric acid]	100%	0%	0%	0%	2%	4%	8%	0%	0%	0%	0%	0%	0%	36%	53%	70%	84%	93%	98%	100%	Reaction recovery rate (%) [5]: 3%; Reaction recovery rate (%) [4]: 2%
CC(C)C(=O)O [Isobutyric acid]	80%	0%	0%	0%	0%	0%	0%	0%	0%	0%	0%	0%	0%	40%	55%	70%	83%	91%	96%	84%	Reaction recovery rate (%) [5]: 4%; Reaction recovery rate (%) [4]: 2%
